In US20200038513A1, “MODULATORS OF FAK PROTEOLYSIS AND ASSOCIATED METHODS OF USE” (ARVINAS OPERATIONS, INC., priority 2018, published 2020):

Assays:
p-Src(Y527) = assay: Western blot validation of RPPA results in MDA-MB-231 cells; type: cell-based, human; conditions: 10% FBS, varying concentrations
Description: (§1) If not indicated otherwise, cells were seeded and grown to 80% confluency and were treated with compound or control for 24 hours. Subsequently, the growth media was removed and the cells lysed by the addition of lysis buffer (25 mM Tris, pH 7.4; 1% NP-40, 0.25% deoxycholate, 1 mM sodium vanadate, 10 mM sodium fluoride, 10 mM sodium pyrophosphate, 20 mM β-glycerophosphate and 1× complete EDTA-free protease inhibitor cocktail (Roche)). After 20 minutes the mixture was spun down at 16,000×g for 10 minutes at 4° C. to pellet insoluble materials. Protein concentration of supernatants were determined via BCA assay (Thermo Fisher) before addition of NuPAGE sample buffer containing 5% β-Me and boiling at 95° C. for 10 minutes. Equal amounts of protein were subjected to SDS-PAGE and subsequent electrophoretic transfer onto nitrocellulose membrane. Rabbit antibodies were purchased from Cell Signaling: Fak (3285), p-Fak (3283), p-Paxillin (2541), p-Akt (S473)(4060), GAPDH (2118), Androgen Receptor (5153), p-Src(Y527)(2105), p-S6RP (2215). Mouse antibodies were purchased from Cell Signaling: tubulin (3873), S6RP (2317). Secondary antibody ∝-rabbit (31460) or ∝-mouse (31444) was coupled to horseradish peroxidase and purchased from Thermo Fisher. Immunoblots were developed using enhanced chemiluminescence and visualized using a Bio-Rad Chemi-Doc MP Imaging System and quantitated with Image Lab v.5.2.1 software (Bio-Rad Laboratories). Data analysis and statistics was performed using Prism 7.0 (GraphPad).
(§2) It has been previously shown that extranuclear AR is involved in cell migration and forms a multiprotein complex comprised of filamin A/β-1 integrin/Fak/AR in NIH3T3 fibroblasts that facilitates Fak activation. […] Phosphorylation of S6RP occurs via the Src-Fak-PI3K pathway and p-S6RP is required for the initiation of translation in response to cell growth and proliferation.

p-Akt(S473) = assay: as above; type: cell-based, human; conditions: 10% FBS, varying concentrations
Description: as §1, §2

androgen receptor (AR) = assay: as above; type: cell-based, human; conditions: 10% FBS, varying concentrations
Description: as §1, §2

p-S6RP(S240/S244) = assay: as above; type: cell-based, human; conditions: 10% FBS, varying concentrations
Description: as §1, §2

Fak = Fak (Homo sapiens, UniProt Q05397); assay: Kinase activity assay (Reaction Biology Corp.); type: biochemical; set-up: purchased Reaction Biology Corp. (contract assay service); conditions: 10 μM ATP, n = 2
Description: Reactions were carried out at 10 μM ATP. IC50 values were calculated using Prism 7.0 (GraphPad).

set of 468 kinases = assay: KinomeScan kinase engagement assay (DiscoverX); type: binding; conditions: 1000 nM, 403 non-mutant kinases
Description: The Kinase engagement assay was performed by DiscoverX assessing binding abilities towards a set of 468 kinases.
Examination of Target Protein Selectivity. To assess the target selectivity of exemplary compound 102 over a large panel of different kinases, a DiscoverX KINOMEScan was performed. KINOMEScan measures compound binding to individual kinases via the compounds ability to compete/displace the kinases from an immobilized support that non-selectively binds kinase active sites. […] It appears that the slight loss in inhibitory potency due to linker and VHL ligand attachment results in greater selectivity.

MDA-MB-231 cells [1] = assay: Wound healing assay; type: cell-based, human; conditions: 24 hours
Description: MDA-MB-231 cells were maintained in complete growth medium (RPMI-1640) at 37° C. supplied with 5% CO2. Cells (1×10^6) were split in to a 12-well plate. After 24 hours an even wound was created across each well using a sterile 10 μL pipette tip and the cells were washed with warm phosphate-buffered solution (PBS) twice to remove any floating or dead cells. This time point was considered as 0 hours and cells were incubated in fresh medium containing exemplary compound or control as indicated, for 24 hours. Images of wounded area were captured at 0 hour and after 24 hours using a camera attached to a light microscope. Images were analyzed by ImageJ software and wounded area was quantified. The area of the remaining wound at 24 hours was subtracted from the area of the wound at 0 hour. Percent wound healing (migration) was calculated and data presented as a bar graph using Prism 7.0 (GraphPad). Differences between groups were analyzed by Welch's t-test and considered significant when p<0.05.
Since Fak is a key regulator of cell motility, exemplary compound 102 was evaluated for its effect on cell migration and invasion. […] Effects on cell migration were analyzed in a wound healing assay using the aggressive and invasive human TNBC cell line MDA-MB-231. […] Wound closure was quantified after 24 hours (FIGS. 13A and 13B).

PC3 cells = assay: Cell proliferation assay (MTS); type: cell-based, human; conditions: 96 h
Description: (§3) Cells were seeded in 96-well plates and treated with exemplary compound or control as indicated. At desired time points culture medium was supplemented with […] MTS (Promega) and […] phenazine methosulfate (Sigma) and incubated at 37° C. Mitochondrial reduction of MTS to the formazan derivative was monitored by measuring the medium's absorbance at 490 nm using a Wallac Victor 2 plate reader (Perkin-Elmer Life Sciences). Data analysis and statistics was performed using Prism 7.0 (GraphPad).

MDA-MB-231 cells [2] = assay: Cell proliferation assay (MTS); type: cell-based, human; conditions: 96 hours
Description: as §3

S6RP = assay: Western blot of S6RP total levels in MDA-MB-231 cells; type: cell-based, human; conditions: 10% FBS, varying concentrations
Description: as §1, with “Secondary antibody ∝-rabbit (31460) or ∝-mouse (31444) was coupled to horseradish peroxidase and purchased from Thermo Fisher.” left out, “Data analysis and statistics was performed using Prism 7.0 (GraphPad).” left out

Sequence of Fak (Q05397 whole entry): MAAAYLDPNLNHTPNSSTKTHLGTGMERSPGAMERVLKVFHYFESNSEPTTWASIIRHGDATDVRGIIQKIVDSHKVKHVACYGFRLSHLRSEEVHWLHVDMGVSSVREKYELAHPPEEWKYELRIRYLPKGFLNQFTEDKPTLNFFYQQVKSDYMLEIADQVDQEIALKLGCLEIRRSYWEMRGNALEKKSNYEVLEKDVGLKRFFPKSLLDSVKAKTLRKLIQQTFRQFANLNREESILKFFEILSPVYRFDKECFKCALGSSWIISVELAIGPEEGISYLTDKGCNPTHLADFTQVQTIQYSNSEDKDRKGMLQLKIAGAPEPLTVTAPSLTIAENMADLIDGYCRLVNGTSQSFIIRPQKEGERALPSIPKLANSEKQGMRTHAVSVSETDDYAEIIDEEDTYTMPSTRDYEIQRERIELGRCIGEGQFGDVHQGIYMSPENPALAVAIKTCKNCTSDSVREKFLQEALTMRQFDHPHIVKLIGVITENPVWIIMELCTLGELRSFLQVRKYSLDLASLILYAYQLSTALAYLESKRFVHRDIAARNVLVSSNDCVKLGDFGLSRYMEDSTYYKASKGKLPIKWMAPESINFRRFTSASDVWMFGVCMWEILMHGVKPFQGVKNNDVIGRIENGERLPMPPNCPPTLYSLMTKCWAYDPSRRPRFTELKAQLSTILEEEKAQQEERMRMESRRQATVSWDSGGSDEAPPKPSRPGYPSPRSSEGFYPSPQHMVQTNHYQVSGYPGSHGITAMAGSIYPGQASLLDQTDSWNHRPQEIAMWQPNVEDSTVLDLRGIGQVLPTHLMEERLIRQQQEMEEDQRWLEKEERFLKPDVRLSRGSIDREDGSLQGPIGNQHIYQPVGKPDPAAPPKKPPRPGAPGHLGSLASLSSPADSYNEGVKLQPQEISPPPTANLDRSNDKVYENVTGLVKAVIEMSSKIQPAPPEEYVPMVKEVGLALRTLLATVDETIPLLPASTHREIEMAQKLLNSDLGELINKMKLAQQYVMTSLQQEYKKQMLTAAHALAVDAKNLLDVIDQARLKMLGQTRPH

Cc1ncsc1-c1ccc(CNC(=O)[C@@H]2C[C@@H](O)CN2C(=O)[C@@H](NC(=O)CCOCCOc2ccc(Nc3ncc(C(F)(F)F)c(NCc4cccc(N(C)S(C)(=O)=O)c4)n3)cc2)C(C)(C)C)cc1 [Compound 102, (2S,4R)-1-((S)-3,3-dimethyl-2-(3-(2-(4-((4-((3-(N-methylmethylsulfonamido)benzyl)amino)-5-(trifluoromethyl)pyrimidin-2-yl)amino)phenoxy)ethoxy)propanamido)butanoyl)-4-hydroxy-N-(4-(4-methylthiazol-5-yl)benzyl)pyrrolidine-2-carboxamide]
p-Src(Y527) levels (in words) (p-Src(Y527)): reduced levels | p-Akt(S473) levels (in words) (p-Akt(S473)): reduced levels of p-Akt(S473) | AR levels (in words) (androgen receptor (AR)): reduction of AR levels | phosphorylation of S6RP (in words) (p-S6RP(S240/S244)): reduced phosphorylation | IC50 (Fak): 6.5 nM | Number of Hits, S(10) (set of 468 kinases): 7 | Selectivity Score, S(1) (set of 468 kinases): 0.002 | Selectivity Score, S(10) (set of 468 kinases): 0.017 | Selectivity Score, S(35) (set of 468 kinases): 0.05 | Number of Hits, S(35) (set of 468 kinases; less than 35% of control remaining): 20 | reduction of wound healing (MDA-MB-231 cells [1]; 50 nM): 53% | impairment of wound closure (MDA-MB-231 cells [1]; 250 nM): 70% | cell viability or proliferation (in words) (PC3 cells): do not affect cell viability or proliferation within four days | cell viability or proliferation (in words) (MDA-MB-231 cells [2]): do not affect cell viability or proliferation within four days | total S6RP levels (in words) (S6RP): unchanged
